Laboratory results as given in BindingDB's records for doi:10.1021/acs.jmedchem.9b01392 (AstraZeneca, 2020).

Target: T1, Tyrosine-protein kinase JAK3 (Homo sapiens, UniProt P52333)
T1 sequence (P52333 whole entry): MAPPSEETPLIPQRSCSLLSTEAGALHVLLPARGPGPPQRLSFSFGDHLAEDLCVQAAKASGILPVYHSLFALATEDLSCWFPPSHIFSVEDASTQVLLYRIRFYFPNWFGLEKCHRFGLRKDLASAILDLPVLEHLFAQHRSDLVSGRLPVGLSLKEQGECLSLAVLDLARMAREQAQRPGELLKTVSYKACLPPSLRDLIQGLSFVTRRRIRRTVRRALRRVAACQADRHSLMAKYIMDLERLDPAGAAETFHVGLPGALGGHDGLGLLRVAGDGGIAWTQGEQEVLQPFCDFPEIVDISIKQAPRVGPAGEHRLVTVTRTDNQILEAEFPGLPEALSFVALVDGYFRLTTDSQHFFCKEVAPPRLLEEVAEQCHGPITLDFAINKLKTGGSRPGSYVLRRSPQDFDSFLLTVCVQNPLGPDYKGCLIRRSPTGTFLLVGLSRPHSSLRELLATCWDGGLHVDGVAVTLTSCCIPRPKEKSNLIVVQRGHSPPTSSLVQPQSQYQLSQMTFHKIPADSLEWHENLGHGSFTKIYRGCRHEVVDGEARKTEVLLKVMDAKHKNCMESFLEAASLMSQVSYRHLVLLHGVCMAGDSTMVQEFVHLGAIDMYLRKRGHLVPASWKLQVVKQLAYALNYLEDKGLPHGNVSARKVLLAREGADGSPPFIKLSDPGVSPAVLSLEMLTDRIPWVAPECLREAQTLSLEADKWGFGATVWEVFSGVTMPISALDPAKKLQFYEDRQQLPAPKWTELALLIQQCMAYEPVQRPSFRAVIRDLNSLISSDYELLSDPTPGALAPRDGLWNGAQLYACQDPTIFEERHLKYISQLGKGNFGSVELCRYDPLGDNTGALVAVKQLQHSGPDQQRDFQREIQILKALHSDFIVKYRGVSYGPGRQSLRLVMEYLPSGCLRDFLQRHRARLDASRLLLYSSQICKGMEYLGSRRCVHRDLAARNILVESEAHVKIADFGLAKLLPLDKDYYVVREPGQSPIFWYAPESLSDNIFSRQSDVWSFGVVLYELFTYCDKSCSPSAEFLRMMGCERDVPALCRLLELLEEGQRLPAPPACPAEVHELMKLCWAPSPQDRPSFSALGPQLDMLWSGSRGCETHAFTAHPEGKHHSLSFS
Experiment: Inhibition of JAK3 (unknown origin)

IC50: > 30 µM
SMILES: COc1nn(C)cc1Nc1nccc(-c2c[nH]c3c(NC(=O)[C@@H](C)N4CCN(C)CC4)cccc23)n1 [(2R)-N-(3-{2-[(3-methoxy-1-methyl-1H-pyrazol-4-yl)amino]pyrimidin-4-yl}-1H-indol-7-yl)-2-(4-methylpiperazin-1-yl)propanamide]
